Test results taken from ChEMBL document CHEMBL2163236, “7-Oxo-[1,4]oxazino[2,3,4-ij]quinoline-6-carboxamides as selective CB(2) cannabinoid receptor ligands: structural investigations around a novel class of full agonists” (J Med Chem, 2012).

Legend:
[1] = molecular target: T1, Cannabinoid receptor 2 (Homo sapiens, UniProt P34972); test: Agonist activity at human recombinant CB2 receptor expressed in CHO cell membranes assessed as inhibition of forskolin-induced cAMP accumulation; type: functional, cell-based
[2] = molecular target: Cannabinoid receptor 1 (Rattus norvegicus, UniProt P20272); test: Displacement of [3H]CP-55940 from CB1 receptor in Sprague-Dawley rat brain by scintillation counting
[3] = molecular target: T2, Cannabinoid receptor 2 (Rattus norvegicus, UniProt Q9QZN9); test: Displacement of [3H]CP-55940 from CB2 receptor in Sprague-Dawley rat spleen by scintillation counting
T2 sequence (Q9QZN9 whole entry): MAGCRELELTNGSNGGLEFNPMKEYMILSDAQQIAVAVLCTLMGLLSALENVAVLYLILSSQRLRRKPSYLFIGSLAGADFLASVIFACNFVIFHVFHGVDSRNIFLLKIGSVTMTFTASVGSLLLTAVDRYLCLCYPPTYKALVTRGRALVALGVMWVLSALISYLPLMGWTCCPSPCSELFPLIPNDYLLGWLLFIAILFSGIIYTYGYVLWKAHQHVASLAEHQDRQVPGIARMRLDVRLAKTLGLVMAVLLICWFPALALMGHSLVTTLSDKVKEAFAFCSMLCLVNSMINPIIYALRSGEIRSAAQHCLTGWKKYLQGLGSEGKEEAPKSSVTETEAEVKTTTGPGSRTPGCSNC

[4] = organism: Homo sapiens; test: Selectivity ratio of Ki for human recombinant CB1 receptor to KI for human recombinant CB2 receptor
[5] = molecular target: Cannabinoid receptor 1 (Homo sapiens, UniProt P21554); test: Displacement of [3H]CP-55940 from human recombinant CB1 receptor expressed in CHO cell membranes incubated for 90 mins by scintillation counting
[6] = molecular target: T1, Cannabinoid receptor 2; test: Displacement of [3H]CP-55940 from human recombinant CB2 receptor expressed in CHO cell membranes incubated for 60 mins by scintillation counting

T1 sequence (P34972 whole entry): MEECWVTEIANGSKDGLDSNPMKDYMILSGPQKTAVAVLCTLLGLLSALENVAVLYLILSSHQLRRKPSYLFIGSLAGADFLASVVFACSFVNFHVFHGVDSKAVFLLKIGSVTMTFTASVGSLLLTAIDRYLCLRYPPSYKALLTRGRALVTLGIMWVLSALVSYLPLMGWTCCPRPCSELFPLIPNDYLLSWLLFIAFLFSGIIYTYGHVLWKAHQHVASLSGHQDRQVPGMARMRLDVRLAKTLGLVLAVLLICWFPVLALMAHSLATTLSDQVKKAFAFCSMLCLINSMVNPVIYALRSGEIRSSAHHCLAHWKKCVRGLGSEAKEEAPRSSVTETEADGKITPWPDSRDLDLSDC
Cannabinoid receptor 1 (Homo sapiens, UniProt P21554), sequence (P21554 whole entry): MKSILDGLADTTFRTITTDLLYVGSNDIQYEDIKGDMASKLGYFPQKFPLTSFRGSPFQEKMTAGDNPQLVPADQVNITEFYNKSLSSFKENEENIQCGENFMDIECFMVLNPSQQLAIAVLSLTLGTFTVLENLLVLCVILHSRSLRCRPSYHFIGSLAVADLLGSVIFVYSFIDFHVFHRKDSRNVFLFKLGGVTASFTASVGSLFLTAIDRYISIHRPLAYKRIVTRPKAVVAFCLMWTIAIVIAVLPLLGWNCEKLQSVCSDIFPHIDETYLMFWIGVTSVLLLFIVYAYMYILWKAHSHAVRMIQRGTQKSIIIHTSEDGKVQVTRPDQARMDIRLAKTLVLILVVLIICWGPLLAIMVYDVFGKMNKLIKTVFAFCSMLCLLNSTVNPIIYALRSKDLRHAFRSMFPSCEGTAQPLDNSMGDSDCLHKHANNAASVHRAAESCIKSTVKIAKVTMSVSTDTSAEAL
Cannabinoid receptor 1 (Rattus norvegicus, UniProt P20272), sequence (P20272 whole entry): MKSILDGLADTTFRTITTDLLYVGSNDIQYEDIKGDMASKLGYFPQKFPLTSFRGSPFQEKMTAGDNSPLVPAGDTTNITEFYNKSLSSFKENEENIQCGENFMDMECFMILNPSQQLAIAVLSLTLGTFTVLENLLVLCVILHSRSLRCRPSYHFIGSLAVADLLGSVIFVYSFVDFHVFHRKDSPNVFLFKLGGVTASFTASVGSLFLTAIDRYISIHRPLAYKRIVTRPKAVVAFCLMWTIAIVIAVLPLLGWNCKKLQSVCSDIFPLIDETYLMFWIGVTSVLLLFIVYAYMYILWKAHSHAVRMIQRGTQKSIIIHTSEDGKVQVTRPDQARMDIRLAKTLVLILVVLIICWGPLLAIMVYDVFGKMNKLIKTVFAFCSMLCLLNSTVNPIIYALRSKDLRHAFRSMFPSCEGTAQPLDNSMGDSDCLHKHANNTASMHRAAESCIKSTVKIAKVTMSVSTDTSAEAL

## O=C(NC1CCCCC1)c1cn2c3c(cccc3c1=O)OCC2c1ccccc1 (racemic)
[1]
  IC50: 15.2 nM
[2]
  Ki: 1150 nM
[3]
  Ki: 19.3 nM
[4]
  Ratio Ki: 166
[5]
  Ki: 420 nM
[6]
  Ki: 2.52 nM

## O=C(NC1CCCCCC1)c1cn2c3c(cccc3c1=O)OCC2c1ccccc1 (racemic)
[1]
  IC50: 5.23 nM
[2]
  Ki: 372 nM
[3]
  Ki: 14.7 nM
[4]
  Ratio Ki: 383
[5]
  Ki: 310 nM
[6]
  Ki: 0.81 nM

## O=C(NC12CC3CC(CC(C3)C1)C2)c1cn2c3c(cccc3c1=O)OCC2c1ccccc1 (racemic)
[1]
  IC50: 26 nM
[2]
  Ki: 670 nM
[3]
  Ki: 18.3 nM
[4]
  Ratio Ki: 19
[5]
  Ki: 265 nM
[6]
  Ki: 14.2 nM

## CC12CC3CC(C)(C1)CC(NC(=O)c1cn4c5c(cccc5c1=O)OCC4c1ccccc1)(C3)C2 (racemic)
[1]
  IC50: 18.3 nM
[2]
  Ki: 545 nM
[3]
  Ki: 46 nM
[4]
  Ratio Ki: 133
[5]
  Ki: 460 nM
[6]
  Ki: 3.45 nM

## CC1Oc2cccc3c(=O)c(C(=O)NC4CCCCC4)cn(c23)C1c1ccccc1 (racemic)
[1]
  IC50: 2750 nM
[2]
  Ki: 3520 nM
[3]
  Ki: 710 nM
[4]
  Ratio Ki: 5.83
[5]
  Ki: 3130 nM
[6]
  Ki: 536 nM

## CC1Oc2cccc3c(=O)c(C(=O)NC45CC6CC(CC(C6)C4)C5)cn(c23)C1c1ccccc1 (racemic)
[1]
  IC50: 1680 nM
[2]
  Ki: 2640 nM
[3]
  Ki: 443 nM
[4]
  Ratio Ki: 7.33
[5]
  Ki: 2440 nM
[6]
  Ki: 332 nM

## Cc1ccc(C2COc3cccc4c(=O)c(C(=O)NC5CCCCC5)cn2c34)cc1 (racemic)
[1]
  IC50: 2460 nM
[2]
  Ki: 4570 nM
[3]
  Ki: 547 nM
[4]
  Ratio Ki: 8.78
[5]
  Ki: 4110 nM
[6]
  Ki: 468 nM

## Cc1ccc(C2COc3cccc4c(=O)c(C(=O)NC56CC7CC(CC(C7)C5)C6)cn2c34)cc1 (racemic)
[1]
  IC50: 2210 nM
[2]
  Ki: 4150 nM
[3]
  Ki: 482 nM
[4]
  Ratio Ki: 9.41
[5]
  Ki: 3880 nM
[6]
  Ki: 412 nM

## Cc1cc2c3c(c1)c(=O)c(C(=O)NC1CCCCC1)cn3C(c1ccccc1)CO2 (racemic)
[1]
  IC50: 110 nM
[2]
  Ki: 1570 nM
[3]
  Ki: 25 nM
[4]
  Ratio Ki: 73
[5]
  Ki: 1350 nM
[6]
  Ki: 18.4 nM

## CC1COc2cccc3c(=O)c(C(=O)NC4CCCCC4)cn1c23 (racemic)
[1]
  IC50: 245 nM
[2]
  Ki: 2630 nM
[3]
  Ki: 65 nM
[4]
  Ratio Ki: 36
[5]
  Ki: 2150 nM
[6]
  Ki: 60 nM

## O=C(NC1CCCC1)c1cn2c3c(cccc3c1=O)OCC2c1ccccc1 (racemic)
[1]
  IC50: 472 nM
[2]
  Ki: 150 nM
[3]
  Ki: 110 nM
[4]
  Ratio Ki: 1.35
[5]
  Ki: 132 nM
[6]
  Ki: 98 nM
